Measurements from publication PMC5848165 (Toxins, 2018).
Residues, ends and D or L forms follow the SMILES beside them.

Key:
[1] = system: WT Nav1.7, domain II voltage sensor; assay: Voltage sensor trapping test on WT Nav1.7 (patch clamp pulse protocols); format: cell-based, human; details: 10 µM
Protocol: It has been proven that scorpion β-toxins trapped the domain II S4 voltage sensor in the outward position. However, HWTX-IV inhibited sodium channels by trapping voltage sensor in a closed configuration [15]. We wondered whether JZTX-34 blocked sodium channels in a resting state or an outward position. The current traces were recorded by a 50 ms depolarizing pulse of −10 mV from a holding potential of −80 mV. At first, 10 µM JZTX-34 was added to cells and incubated for 5 min. Then, the currents were elicited by the protocol described before. […] To further confirm this, the same protocol described by Cestele et al. was used to assess whether JZTX-34 traps the domain II S4 voltage sensor of the WT Nav1.7 in a closed position. A 15 ms test pulse to 0 mV was applied from a holding potential of −80 mV and was followed by a 1 ms conditioning pulse to +50 mV. Then, a 15 ms test pulse to −65 mV was used to detect whether the currents were elicited.
Figure 5 JZTX-34 traps the domain II voltage sensor in closed configuration. (A) Nav1.7 current traces were elicited by a protocol as following. First, an inward sodium currents were elicited by a 50 ms depolarizing potential to 0 mV from a holding potential of −80 mV every 5 s. Second, 10 μM JZTX-34 were added to bath solution. Finally, the same pulse protocol was applied to elicit inward currents after a 5 min toxin treatment. (B) The current traces 0, 15 ms, 100 ms, and 5 min after toxin treatment are shown, which were elicited by a protocol as shown in C. (C) This pulse protocol was included three phases and applied every 5 s. […]
(§1) The HEK293T cells were maintained in standard culture conditions (5% CO2 and 37 °C). […] After culturing for 36–72 h, cells with obvious green fluorescence were selected for sodium currents recordings the internal solution for sodium currents recording that contained (in mM) 140 CsF, 5 NaCl, 10 HEPES, 3 Na2-ATP, and 10 EGTA. […]
Sodium currents were recorded from DRG, HEK293, and ND cells by the whole-cell patch-clamp technique at 25 °C. […]

Nav1.8 = assay: Whole-cell patch clamp, Nav1.8 in ND cells; format: cell-based, human; details: 1 µM, −10 mV from −80 mV
Excerpt: Nine sodium channel subtypes have been identified and classified as TTX-S (Nav1.1–Nav1.4, Nav1.6, and Nav1.7) or TTX-R types (Nav1.5, Nav1.8, and Nav1.9). […] However, the subtype selectivity of JZTX-34 on the subtype of sodium channel is still unknown. In this work, effects of JZTX-34 on VGSC subtypes (Nav1.1–Nav1.8) were examined. Nav1.1–Nav1.7 were transfected into HEK293 cells and Nav1.8 currents were expressed in ND cells. Inward sodium currents were elicited by a 50 ms depolarizing potential to −10 mV from a holding potential of −80 mV every 5 s. […] No effects on other sodium channel subtypes were found (Nav1.1, Nav1.2, Nav1.4–Nav1.6, and Nav1.8) (Figure S2). […]
as §1
Sodium currents were recorded from DRG, HEK293, and ND cells by the whole-cell patch-clamp technique at 25 °C. […] Experiments date were acquired from whole-cell Axon 700B patch clamp amplifier (Molecular Devices, Sunnyvale, CA, USA) and analyzed by the program Clampfit10.0 (Molecular Devices, Sunnyvale, CA, USA) and Sigmaplot. […]

CC(C)C[C@@H]1NC(=O)[C@H](Cc2c[nH]c3ccccc23)NC(=O)[C@H](CCC(=O)O)NC(=O)[C@H](CCCNC(=N)N)NC(=O)[C@@H](NC(=O)[C@H](C)N)CSSC[C@@H]2NC(=O)[C@@H]3CSSC[C@@H](C(=O)N[C@H](C(=O)N[C@@H](Cc4c[nH]c5ccccc45)C(=O)N[C@@H](CC(=O)O)C(=O)N[C@@H](Cc4c[nH]c5ccccc45)C(=O)N[C@H](C(=O)N[C@H](C(=O)O)C(C)C)[C@@H](C)O)C(C)C)NC(=O)[C@H](Cc4c[nH]cn4)NC(=O)[C@H](Cc4ccc(O)cc4)NC(=O)[C@@H]4CCCN4C(=O)[C@H](Cc4c[nH]c5ccccc45)NC(=O)[C@H](CCCCN)NC(=O)[C@H](CCCCN)NC(=O)[C@H](CCCNC(=N)N)NC(=O)[C@H](CSSC[C@H](NC(=O)CNC(=O)CNC1=O)C(=O)N[C@@H](CO)C(=O)N[C@@H](CCCCN)C(=O)N[C@@H](CC(=O)O)C(=O)N[C@@H](C)C(=O)N[C@@H](CC(=O)O)C(=O)N3)NC(=O)[C@H](CCC(=O)O)NC(=O)[C@H](CC(C)C)NC(=O)[C@H](Cc1c[nH]cn1)NC(=O)[C@H](C)NC2=O [JZTX-34, Jingzhaotoxin-34] (HELM PEPTIDE1{A.C.R.E.W.L.G.G.C.S.K.D.A.D.C.C.A.H.L.E.C.R.K.K.W.P.Y.H.C.V.W.D.W.T.V}$PEPTIDE1,PEPTIDE1,2:R3-16:R3|PEPTIDE1,PEPTIDE1,9:R3-21:R3|PEPTIDE1,PEPTIDE1,15:R3-29:R3$$$V2.0; N-terminus and C-terminus assumed)
inhibition at first pulse after incubation at rest ([1]; 5 min incubation, −10 mV (legend: 0 mV) from −80 mV): currents were significantly inhibited at the first pulse
current amplitude at first test pulse (0 mV) ([1]; 15 ms test pulse to 0 mV from −80 mV): greatly depressed in a time-dependent manner
inward current at second test pulse (−65 mV) ([1]; after 1 ms conditioning pulse to +50 mV): no inward current was observed
effect on Nav1.8 currents (Nav1.8): No effects
